Reference: US20150315146A1, “USE OF SUBSTITUTED 1-(ARYL ETHYNYL)-, 1-(HETEROARYL ETHYNYL)-, 1-(HETEROCYCLYL ETHYNYL)- AND 1-(CYCLOALKENYLETHYNYL)-BICYCLOALKANOLS AS ACTIVE AGENTS AGAINST ABIOTIC PLANT STRESS” (BAYER CROPSCIENCE AG, priority 2012, published 2015)

Key:
Experiment in all cases: Drought stress test on potted crop plants in greenhouse, spray application, efficacy from damage values
Format in all cases: in vivo
Brassica napus (BRSNS) = settings: spray at 600 l/ha water, averages from one to three trials
Description: (§1) Seeds of monocotyledonous and dicotyledonous crop plants were laid out in sandy loam in wood-fiber pots, covered with soil or sand and cultivated in a greenhouse under good growth conditions. The test plants were treated at the early leaf stage (BBCH10-BBCH13). To assure uniform water supply before commencement of stress, the potted plants were supplied with water by dam irrigation prior to substance application. The compounds according to the invention, formulated in the form of wettable powders (WP), were sprayed onto the green parts of the plants as an aqueous suspension at an equivalent water application rate of 600 l/ha with addition of 0.2% wetting agent (e.g. agrotin). Substance application was followed immediately by stress treatment of the plants. For this purpose, the pots were transferred into plastic inserts in order to prevent them from subsequently drying out too quickly. Drought stress was induced by gradual drying out under the following conditions: “Day”: 14 hours with illumination at 26° C. “Night”: 10 hours without illumination at 18° C. The duration of the respective stress phases was guided mainly by the state of the untreated, stressed control plants and thus varied from crop to crop. It was ended (by re-irrigating and transfer to a greenhouse with good growth conditions) as soon as irreversible damage was observed on the untreated, stressed control plants. In the case of dicotyledonous crops, for example oilseed rape and soya, the duration of the drought stress phase varied between 3 and 6 days, in the case of monocotyledonous crops, for example wheat, barley or corn, between 6 and 11 days. The end of the stress phase was followed by an approx. 5-7-day recovery phase, during which the plants were once again kept under good growth conditions in a greenhouse. In order to rule out any influence of the effects observed by any fungicidal or insecticidal action of the test compounds, it was additionally ensured that the tests proceeded without fungal infection or insect infestation. After the recovery phase had ended, the intensities of damage were analyzed in visual comparison to untreated, unstressed controls of the same age. The intensity of damage was first recorded as a percentage (100%=plants have died, 0%=like control plants). These values were then used to calculate the efficacy of the test compounds (=percentage reduction in the intensity of damage as a result of substance application) by the following formula: [formula] EF: efficacy (%) DVus: damage value of the untreated, stressed control DVts: damage value of the plants treated with test compound In each trial, 3 pots per crop and dosage were treated and evaluated; the resulting efficacies are thus averages. The values in tables A-1 to A-3 below are again averages from one to three independent trials. BRSNS=Brassica napus TRZAS=Triticum aestivum ZEAMX=Zea mays

[1] = system: Triticum aestivum (TRZAS); settings: topical, percentage reduction in the intensity of damage, read-out: EF (TRZAS) efficacy; for pest or weed control at 250 g/ha: dosage 250 g/ha
Description: as §1

Zea mays (ZEAMX) = settings: percentage reduction in the intensity of damage
Description: as §1

Compound	EF (BRSNS): efficacy = percentage reduction in the intensity of damage as a result of substance application (Brassica napus (BRSNS); dosage 250 g/ha)	pest or weed control at 250 g/ha [1]	EF (ZEAMX) efficacy (Zea mays (ZEAMX); dosage 25 g/ha)	EF (ZEAMX) efficacy (Zea mays (ZEAMX); dosage 250 g/ha)	EF (BRSNS): efficacy = percentage reduction in the intensity of damage as a result of substance application (Brassica napus (BRSNS); dosage 25 g/ha)	pest or weed control at 25 g/ha ([1]; dosage 25 g/ha)
CC(=O)Oc1ccccc1C#CC1(O)C2(C)CCC(C2)C1(C)C (stereo not drawn) [I.1-79]	>5%	> 5%	>5%	–	–	–
CC12CCC(C1)C(C)(C)C2(O)C#Cc1ccccc1NS(C)(=O)=O (stereo not drawn) [I.1-88]	>5%	–	–	–	–	–
CC12CCC(C1)C(C)(C)C2(O)C#Cc1ccccc1CC#N (stereo not drawn) [I.1-74]	>5%	> 5%	–	>5%	–	–
COC(=O)c1cc(C)ccc1C#CC1(O)CC2CCC1C2 (stereo not drawn) [I.21-33]	>5%	> 5%	–	>5%	–	–
COC(=O)c1ccccc1C#CC1(O)C2CC3CC(C2)CC1C3 (stereo not drawn) [I.19-30]	–	> 5%	–	–	>5%	–
COC(=O)c1ccccc1C#CC1(O)C2(C)CCC(C2)C1(C)C (stereo not drawn) [I.1-116]	–	> 5%	>5%	–	>5%	–
COC(=O)c1ccccc1C#CC1(O)C2CCC(C2)C12CC2 (stereo not drawn) [I.29-26]	–	–	–	–	–	> 5%
CC12CCC(C1)C(C)(C)C2(O)C#Cc1ccccc1F (stereo not drawn) [I.1-1]	–	> 5%	–	>5%	>5%	–
COC(=O)c1ccccc1C#CC1(O)C(C)CCC2C1C2(C)C (stereo not drawn) [I.35-26]	–	> 5%	–	>5%	–	–
